# Assay results: patent publication US4263326A, “Antimicrobial compositions containing an octylphenone” (The Lion Dentrifice Co. Ltd., priority 1978, dated 1981)
# Read-outs that look alike come from different tables or passages of the source.
# What was measured:
# Oral LD50 in rats = format: in vivo; details: rat, in vivo, po
# rats = experiment: Oral LD50 in rats; format: in vivo
# [1] = Irritancy / physiological activity
# Bacillus subtilis = experiment: Growth prevention of Bacillus subtilis in tripticase soy broth culture media at 37° C; format: cell-based
# Experimental: For comparative purpose, three more culture media were prepared without addition of an antimicrobial agnet or with addition of 2% by weight of ethyl alcohol or 0.2% by weight of sorbic acid instead of the phenone compound and Bacillus subtilis was cultured therein similarly.
# Penicillium crysogenum = details: 5%, 28° C
# Experimental: (§1) The antifungal effect of the extract powder prepared in Example 2 was examined by adding it into potato-dextrose agar culture media in an amount of 0.2% by weight in which Aspergillus niger or Penicillium crysogenum were cultured at 28° C. For comparison, similar culture tests of the fungi were undertaken with the culture media in which no antimicrobial agent was added or 5% by weight of ethyl alcohol was added instead of the extract powder.
# (§2) the results are summarized in Table 2 below, in which the marks "±" are for the cases where the growth of the molds was difficultly recognized, the marks "+" are for the cases where the growth of the molds could be recognized only of the hyphae though to a small extent, the mark "++" are for the cases where the growth could be recognized only of the hyphae to a considerable extent, and the marks "+++" and "++++" are for the cases where spores were formed.
# Aspergillus niger = test system: Aspergillus niger; parameters: key to the marks not given beside the values; details: 5%, 28° C
# Experimental: as §1, §2
compound,measurement,setting,value
"O=C(CCCCCCCCc1cc(O)ccc1O)c1c(O)cccc1O [2',6'-dihydroxy-9-(2,5-dihydroxyphenyl)octylphenone]",LD50,Oral LD50 in rats,≥ 2000 mg/kg
same,LD50,rats,2000 mg/kg
same,irritancy,[1],non-irritant
same,physiological activity,[1],physiologically inactive
same,duration of growth prevention,"Bacillus subtilis; 0.002% by weight, tripticase soy broth",≥ 7.5 h
same,effectiveness compared with sorbic acid,Bacillus subtilis; 0.002% vs sorbic acid 0.2%,more effective than sorbic acid
same,antimicrobial effect compared with sorbic acid,Bacillus subtilis; concentration one hundredth of that of sorbic acid,as good as that of sorbic acid
CCO [Ethyl alcohol],growth of mold,Penicillium crysogenum; 10 days,±
same,growth of mold,Penicillium crysogenum; 18 days,++
same,growth of mold,Aspergillus niger; 10 days,++
same,growth of mold,Aspergillus niger; 18 days,++
"C/C=C/C=C/C(=O)O [Sorbic acid, reference compound]",duration of antimicrobial effect,"Bacillus subtilis; 0.2% by weight, tripticase soy broth",about 4.5 hours
